By IC50 is commonly meant the concentration that gives 50% inhibition.

For assay [1], the system named is NMDA receptor. Kind of assay: Antagonism of NMDA-induced depolarization of rat cortical wedges. It is filed as cell-based. Conditions: NMDA 40 μM, mean ± standard error (n = 3), read-out: IC50 NMDA, antagonism of cortical wedge depolarization. Here is the method: (§1) The depolarization of rat cortical wedges was used to test the selectivity and potency of the formula I compounds as AMPA antagonists using a technique similar to that described by Harrison and Simmonds. Harrison and Simmonds, Bri. J. Pharmacol., 84, 381-391 (1984). Generally, 4-ml aliquots of NMDA (40 μM), AMPA (40 μM), and kainate (10 μM) were superfused (2 ml/min.) on the grey matter at intervals of 15-20 minutes until stable responses were attained. The tissue was then exposed for 15 minutes to various concentrations of the formula I compounds before retesting the agonists. The IC50 values were calculated from linear regression of log dose-response curves, each point the mean of at least three observations on separate slices from more than one animal.

The target of assay [2] is AMPA receptor. Kind of assay: Radioligand binding: [^3 H]AMPA binding with crude membranes of rat forebrain. Here is the method: (§2) The formula I compounds were tested for their ability to inhibit NMDA, AMPA, and kainic acid receptor binding to rat membranes in a radioligand binding assay using [^3 H]CGS19755, [^3 H]AMPA, and [^3 H]KA. For all radioligand binding assays, male Sprague-Dawley rats were used. […] Non-specific binding was determined using 10 μM L-glutamate. Samples were incubated in an ice-bath for 30 minutes, and bound ligand was separated from the free ligand by rapid filtration through WHATMAN GF/B glass fiber filters. Murphy et al, British J. Pharmacol., 95, 932-938 (1988). Kainate binding was performed using washed synaptosomal membranes from the rat forebrain as described by Simon et al. Simon et al, J. Neurochem., 26, 141-147 (1976). Tritiated kainate (5 nM) was added to 50 mM Tris-HCl buffer (pH 7.4 at 4° C.) containing 200-300 μg/ml of tissue protein. Samples were incubated for 30 minutes in an ice-bath, then rapidly filtered using a Brandel cell harvester and WHATMAN GF/C filters. Filters were washed twice with 3 ml of cold buffer. Non-specific binding was determined using 100 μM non-labeled kainate. The binding of [^3 H]AMPA (5 nM) was conducted with crude membranes of rat forebrain in the presence of 100 mM KSCN as described by Nielson et al. Nielson et al, Eur. J. Med. Chem. Chim. Ther., 21, 433-437 (1986). Non-specific binding was determined with 10 μM non-labeled AMPA. The concentration of the formula I compound that inhibited 50% binding (IC50, mean ±standard error, n=3) as calculated by linear regression of displacement data transformed to the Hill equation as described by Bennett. Bennett, Neurotransmitter Receptor Binding, 57-90 (1978).

The target in assay [3] is NMDA receptor. Put plainly: Radioligand binding: displacement of [^3 H]CGS19755 from synaptosomal membranes of rat forebrain (NMDA receptor affinity). Conditions: [^3 H]CGS19755 10 nM, mean ± standard error (n = 3), values marked ^c single experiment. Here is the method:
as §2

Assay [4] deals with kainic acid (KA) receptor. Kind of assay: Radioligand binding: tritiated kainate binding with washed synaptosomal membranes from the rat forebrain. As to conditions: tritiated kainate 5 nM, pH 7.4, mean ± standard error (n = 3), values marked ^c single experiment. Here is the method: as §2
Assay [5] deals with AMPA receptor. Put plainly: Antagonism of AMPA-induced depolarization of rat cortical wedges. The class given is cell-based. On the procedure:
as §1

For assay [6], the system named is kainic acid (KA) receptor. Kind of assay: Antagonism of kainate-induced depolarization of rat cortical wedges. The class given is cell-based. Conditions: kainate 10 μM, mean ± standard error (n = 3). On the procedure:
as §1

The mark [7] stands for this setting: Table II, enantiopure, [^3 H]AMPA 5 nM, 100 mM KSCN, mean ± standard error (n = 3), values marked ^c single experiment, read-out: IC50 AMPA, receptor binding.
The mark [8] stands for this setting: Table IV; enantiopure; AMPA 40 μM; mean ± standard error (n = 3); read-out: IC50 AMPA, antagonism of cortical wedge depolarization.
[9] abbreviates: Table I, racemic, [^3 H]AMPA 5 nM, 100 mM KSCN, mean ± standard error (n = 3), values marked ^c single experiment, read-out: IC50 AMPA, receptor binding.
[10] abbreviates: Table III; racemic; AMPA 40 μM; mean ± standard error (n = 3); read-out: IC50 AMPA, antagonism of cortical wedge depolarization.
Where [11] appears, read: text summary of Table I, racemic, read-out: selectively displaced ^3 H-AMPA with IC50 values.
[12] abbreviates: Table III; cortical wedge; racemic.

Turning to `O=C(O)[C@@H]1C[C@H]2C[C@@H](CSc3nn[nH]n3)CC[C@H]2CN1` [Compound 23], the IC50 amounted to 22.9 ± 3.8 µM in the assay on NMDA receptor [1] (Table IV, enantiopure); 0.58 ± 0.03 µM at AMPA receptor [2] (setting [7]); 16.3 µM at NMDA receptor [3] (Table II, enantiopure); 1.35 ± 0.35 µM in the assay with AMPA receptor [5] (setting [8]). The “IC50 KA, receptor binding” value in assay [4] (Table II, enantiopure) turned out to be 12.5 µM. For the same compound, in assay [6] (Table IV, enantiopure), the “IC50 KA, antagonism of cortical wedge depolarization” value (from here on “IC50 KA, antagonism”) is more than 31.6 µM.
As to `O=C(O)[C@@H]1C[C@H]2C[C@H](CCSc3nnn[nH]3)CC[C@H]2CN1` (racemic) [Compound 8, (3SR,4aRS,6RS,8aRS)-6-[3-(1(2)H-Tetrazole-5-yl)-3-thiaprop-1-yl]decahydroisoquinoline-3-carboxylic Acid], the IC50 at NMDA receptor [1] (Table III, racemic) was more than 100 µM; on AMPA receptor [2] (setting [9]), 10.6 ± 2 µM; on NMDA receptor [3] (Table I, racemic), 49.2 ± 1.86 µM; at AMPA receptor [5] (setting [10]), 6.8 ± 1.5 µM. Besides, in assay [4] (Table I, racemic), the “IC50 KA, receptor binding” value was determined as 28.76 ± 2.21 µM. Moreover, the “IC50 KA, antagonism” value in assay [6] (Table III, racemic) is 18.1 ± 5.1 µM.
As for `O=C(O)[C@@H]1C[C@H]2C[C@@H](C(Cc3nn[nH]n3)c3ccccc3)CC[C@H]2CN1` (stereo partly drawn) [Compound 19, (3SR,4aRS,6RS,8aRS)-6-[2-(1(2)H-Tetrazole-5-yl)-1-phenylethyl]decahydroisoquinoline-3-carboxylic Acid], the IC50 is 100 µM with NMDA receptor [1] (Table III, racemic); 6.58 µM at AMPA receptor [2] (setting [9]); less than 15 µM at AMPA receptor [2] (setting [11]); 13.8 µM on NMDA receptor [3] (Table I, racemic); 9 ± 2.8 µM with AMPA receptor [5] (setting [10]). In addition, in assay [4] (Table I, racemic), the “IC50 KA, receptor binding” value is more than 100 µM. In addition, the “selective AMPA receptor antagonism (in words)” value in the assay with AMPA receptor [5] (setting [12]) was “selective AMPA receptor antagonists”. Moreover, in assay [6] (Table III, racemic), the “IC50 KA, antagonism” value is 23.6 ± 5.6 µM.
Take `O=C(O)[C@@H]1C[C@H]2C[C@@H](CSc3ncn[nH]3)CC[C@H]2CN1` (racemic) [Compound 14, (3SR,4aRS,6SR,8aRS)-6-[2-(1(2-4)H-1,2,4-Triazol-5-yl)-2-thiaethyl]decahydroisoquinoline-3-carboxylic Acid]: the 50% inhibitory concentration (IC50) on NMDA receptor [1] (Table III, racemic) is more than 100 µM; at AMPA receptor [2] (setting [9]) it was more than 10 µM; on NMDA receptor [3] (Table I, racemic) it was more than 10 µM; on AMPA receptor [5] (setting [10]), 68.8 ± 12.3 µM. The “IC50 KA, receptor binding” value in assay [4] (Table I, racemic) is more than 10 µM. Besides, the “IC50 KA, antagonism” value in assay [6] (Table III, racemic) is more than 100 µM.
For `O=C(O)[C@@H]1C[C@H]2C[C@@H](CS(=O)(=O)c3ncn[nH]3)CC[C@H]2CN1` (racemic) [Compound 15, (3SR,4aRS,6SR,8aRS)-6-[(1(2-4)H-1,2,4-Triazole-5-yl)sulfonylmethyl]decahydroisoquinoline-3-carboxylic Acid], the half-inhibitory concentration (IC50) on NMDA receptor [1] (Table III, racemic) was more than 100 µM; at AMPA receptor [2] (setting [9]) it was 1.67 ± 0.14 µM; at AMPA receptor [2] (setting [11]) it was less than 15 µM; on NMDA receptor [3] (Table I, racemic), more than 100 µM; at AMPA receptor [5] (setting [10]) it was 2.16 ± 0.79 µM. Besides, in assay [4] (Table I, racemic), the “IC50 KA, receptor binding” value was more than 100 µM. The “selective AMPA receptor antagonism (in words)” value in the assay on AMPA receptor [5] (setting [12]) is given as “selective AMPA receptor antagonists”. Besides, the “IC50 KA, antagonism” value in assay [6] (Table III, racemic) was “Ca. 10 μM”.
In the case of `O=C(O)[C@@H]1C[C@H]2C[C@@H](CCc3nn[nH]n3)CC[C@H]2CN1` [Compound 21, (3S,4aR,6R,8aR)-(-)-6-[2-(1(2)H-Tetrazole-5-yl)ethyl]decahydroisoquinoline-3-carboxylic Acid], the 50% inhibitory concentration (IC50) in the assay on NMDA receptor [1] (Table IV, enantiopure) is less than 100 µM; on AMPA receptor [2] (setting [7]), 1.35 ± 0.13 µM; on NMDA receptor [3] (Table II, enantiopure), 12.1 ± 2 µM; in the assay on AMPA receptor [5] (read-out: IC50 AMPA, antagonism of cortical wedge depolarization; Table IV; enantiopure; AMPA 40 μM; mean ± standard error (n = 3)), 1.78 ± 0.23 µM. Besides, the “IC50 KA, receptor binding” value in assay [4] (Table II, enantiopure) turned out to be 28.1 ± 1.7 µM. Further, in assay [6] (Table IV, enantiopure), the “IC50 KA, antagonism” value is less than 100 µM.
As for `O=C(O)[C@@H]1C[C@H]2C[C@H](CSc3nn[nH]n3)CC[C@H]2CN1` [Compound 25, (3S,4aR,6R,8aR)-6[2(1(2)H-Tetrazole-5-yl)-2-thiaethyl]decahydroisoquinoline-3-carboxylic Acid], the IC50 in the assay with NMDA receptor [1] (Table IV, enantiopure) is more than 100 µM; at AMPA receptor [2] (setting [7]) it was 17.8 µM; on NMDA receptor [3] (Table II, enantiopure) it was more than 100 µM; in the assay with AMPA receptor [5] (setting [8]), 9 ± 0.8 µM. In assay [4] (Table II, enantiopure), the “IC50 KA, receptor binding” value is 27.9 µM. Besides, the “IC50 KA, antagonism” value in assay [6] (Table IV, enantiopure) was found to be 29.1 ± 4.3 µM.
